Assay results reported in patent US20250170258A1, “DOSAGE REGIMEN” (priority 2022, published 2025).

Tested on: pancreatic cancer PAXF 1657 patient-derived xenograft
Assay: pancreatic cancer PAXF 1657 patient-derived xenograft model
Type: in vivo
Settings: PAXF 1657 PDX, tested alone (single agent)
Procedure: Gemcitabine is a nucleoside metabolic inhibitor. It inhibits DNA synthesis by inhibiting the ribonucleotide reductase, cell cycle-specific for the S-phase (also blocks cellular progression at G1/S-phase). It has been used as monotherapy or combination chemotherapy to treat various cancers. […] ADCT-601 and gemcitabine were tested either alone or in combination in the pancreatic cancer PAXF 1657 patient-derived xenograft model.

## Nc1ccn([C@@H]2O[C@H](CO)[C@@H](O)C2(F)F)c(=O)n1 [gemcitabine]
  anti-tumour activity: limited anti-tumour activity
